Measurements taken from patent US20250339569A1, “CARBONIC ANHYDRASE IX LIGANDS” (priority 2021, published 2025).
Starred links: 1 amine or outer side, 2 acyl side, 3 side chain; linkers in the order of their positions; H or OH if unused. Positions of bridges follow the written chain, without caps; N, C: chain ends. Non-standard residues stand in square brackets, D forms with d. Residues, ends and D or L forms follow the SMILES beside them. *: point of attachment. X47 = NC(=O)[C@H](CCCCNC(=O)CCCC[C@@H]1SC[C@@H]2NC(=O)N[C@@H]21)NC(=O)CCC(=O)NCCCOCCOCCOCCCN*; X69 = CC1(C)C(/C=C/C=C/C=C2\N(CCCCS(=O)(=O)O)c3ccccc3C2(C)C)=[N+](CCCCCC(=O)*)c2ccccc21; mXylylene = c1cc(C[*:1])cc(C[*:2])c1; X2 = O=C(CN1CCC(N[*:1])CC1)[*:2]

Assays:
[1] = biological target: T1, CAIX-expressing human HT-29 colorectal cancer cells (Homo sapiens, UniProt Q16790); experiment: FACS binding assay (EC50 determination, labeled compound); conditions: biotinylated or fluorophore-labeled compound, HT-29 cells, 4°C, 1 hour, read-out: pEC50 category (activity) (converted)
T1 construct: CAIX-expressing human HT-29 colorectal cancer cells; host or cells: HT-29 human colorectal cancer cells
Experimental: In order to determine binding of compounds according to the present invention to CAIX-expressing cells, a FACS binding assay was established.
CAIX-expressing human HT-29 colorectal cancer cells (DSMZ, RRID: CVCL_0320) were cultured in McCoys's 5A modified medium (Biochrom, #F1015) including 10% fetal calf serum (FCS), 2 mM L-glutamine, 100 U/ml penicillin and 100 μg/mL streptomycin. Cells were detached with Accutase (Biolegend, #423201) and washed in FACS buffer (PBS including 1% FCS). Cells were diluted in FACS buffer to a final concentration of 500.000 cells per ml. 200 μL of the cell suspension were transferred to a u-shaped non-binding 96-well plate (Greiner) and cells were washed in ice-cold FACS buffer.
When biotinylated compounds were used an additional incubation step with 1 μg/mL APC-Streptavidin (Miltenyi; #130-106-791) in 50 μL FACS buffer for 30 minutes on ice was performed.
Cells were washed twice with ice-cold FACS buffer and analyzed in an Attune NxT flow cytometer (Thermo Fisher). Median fluorescence intensities (MFI) of the APC/Cy5-channel were calculated by Attune NxT software. MFI values were plotted against peptide concentration and four parameter logistic (4PL) curve fitting and EC50/pEC50 or IC50/pIC50 calculations were performed using ActivityBase software.

[2] = test system: SK-RC-52 (ccRCC) human cancer cell line xenograft; experiment: In vivo efficacy, uptake and tolerability of 177Lu-DPI-4452 (and 68Ga-DPI-4452) in SK-RC-52 xenograft mouse model; design: species or system NMRI nude mice; conditions: SK-RC-52 model; for tolerability of treatment: 177Lu 33 or 100 MBq or 3×33 MBq, 68Ga 10 MBq, i.v.; for uptake in tumor compared to kidney and liver: SPECT/CT 4 h (177Lu) or PET/CT 1 h (68Ga)
Experimental: (§1) The human colorectal cancer cell line HT-29 was cultured in Modified McCoy's 5a Medium supplemented with 10% FBS+1% Pen/Strep, and the human clear cell renal cancer cell line SK-RC-52 was cultured in RPMI-1640 GlutaMax-I supplemented with 10% FBS+1% Pen/Strep.
(§2) 2×10^6 cells were suspended in 100 μL PBS and Matrigel (1:1) and subcutaneously implanted into the neck of anesthetized female immunodeficient NMRI nude mice. Tumor volume (0.52×(length×width^2)) and animal weight was monitored twice weekly until 42 days post treatment initiation. Animals were humanely euthanized by cervical dislocation at predefined study or humane endpoints.
(§3) Animals were randomized into equal groups based on tumor volume and body weight. Treatments were initiated at a mean group tumor volume of 140-180 mm^3 and administered intravenously in the tail vein in a 100 μL dosing volume.
(§4) For both models, treatment groups consisted of 10 mice per group and received either a A) Single administration (day 1) of vehicle, B) Single administration (day 1) of 100 MBq of ^177Lu-DPI-4452, C) Single administration (day 1) of 33 MBq of ^177Lu-DPI-4452 or D) Three administrations (day 1, 8, 15) of 33 MBq of ^177Lu-DPI-4452. To correlate the ^68Ga-DPI-4452 signal with the ^177Lu-DPI-4452 uptake in tumors, an additional satellite group E of 6 mice received a single administration (day 1) of 10 MBq of ^68Ga-DPI-4452 followed by a single administration (day 8) of 33 MBq of ^177Lu-DPI-4452.
(§5) In groups A-D, radioactivity uptake (as % of injected dose/gram tissue) was assessed in the tumor, kidney, and liver in 3 animals per treatment group by whole-body SPECT/CT imaging (nanoScan SPECT/CT, Mediso) at 4 h after each ^177Lu-DPI-4452 administration, using the following parameters: • Imaging bed: Two/three mice bed • CT acquisition • Helical scan, 480 projections • Pitch=1.0 • Voltage=50 kVp • Exposure=170 ms • SPECT acquisition: • Pinhole SPECT • Energy windows: Primor Peak 208 full width: 20%, Secondary 112.9, Tertiary: 56.1 keV • Acquisition time: Up to 30 min • Frame time: 30 s
(§6) In the satellite mice (group E), radioactivity uptake (as % of injected dose/gram tissue) was assessed in the tumor, kidney, and liver in all 6 animals by both whole-body SPECT imaging at 4 h after administration of 33 MBq ^177Lu-DPI-4452, and by whole-body PET/CT imaging (nanoScan PET/CT, Mediso) at 1 h after 10 MBq ^68Ga-DPI-4452 administration, using the following parameters: • Animals per bed: 3 • PET acquisition time: Up to 10 min • PET acquisition start: 1 hour after injection
(§7) One week later the 6 satellite mice were then assessed again for radioactivity uptake by whole-body SPECT/CT imaging at 4 h after the single ^177Lu-DPI-4452 administration using parameters as described above.
(§8) For both models blood sampling for hematology was performed on all animals in group A-D at study day −1, 7, 14 and at study end. Each mouse was restrained and 200 μl blood was obtained from the sublingual or jugular vein in EDTA-tubes and analyzed on the sampling day on a ProCyte Dx Hematology Analyzer with mouse settings. In addition, for the SK-RC-52 model at study day 14 and at study end (day 43), excess blood from the hematology analysis was spun and plasma was obtained (centrifugation at 2000 g for 10 mins at 4° C. in EDTA tubes). The plasma was analyzed for creatinine and urea concentrations using a KONELAB PRIME 30i instrument (Thermo Fisher Scientific).

[3] = test system: HT-29 (CRC) human cancer cell line xenograft; experiment: In vivo efficacy, uptake and tolerability of 177Lu-DPI-4452 (and 68Ga-DPI-4452) in HT-29 xenograft mouse model; design: species or system NMRI nude mice; conditions: HT-29 model; for tolerability of treatment: 177Lu 33 or 100 MBq or 3×33 MBq, 68Ga 10 MBq, i.v.; for uptake in tumor compared to kidney and liver: SPECT/CT 4 h (177Lu) or PET/CT 1 h (68Ga)
Experimental: as §1, §2, §3, §4, §5, §6, §7, §8

`CSCC[C@H](N)C(=O)N[C@H](C(=O)N[C@@H](Cc1ccc(O)cc1)C(=O)N[C@H]1CSCc2cccc(c2)CSC[C@@H](C(=O)NCCCOCCOCCOCCCNC(=O)CCC(=O)N[C@@H](CCCCNC(=O)CCCC[C@@H]2SC[C@@H]3NC(=O)N[C@@H]32)C(N)=O)NC(=O)[C@H](CCC(N)=O)NC(=O)[C@H](Cc2c[nH]c3ccccc23)NC(=O)[C@H]([C@@H](C)O)NC(=O)[C@H](CC(C)C)NC(=O)[C@H](Cc2c[nH]c3ccccc23)NC(=O)[C@H](CC(=O)O)NC(=O)CNC(=O)[C@H](CCC(=O)O)NC1=O)C(C)C` [3BP-2776] (H-MVYCEGDWLTWQC-X47; linker 4-13 via mXylylene) was tested, and the EC50 [1] was less than 10 nM.

With `CC(C)C[C@@H]1NC(=O)[C@H](Cc2cccc(NC(=O)CCCS(N)(=O)=O)c2)NC(=O)[C@H](CC(=O)O)NC(=O)[C@H]2CCCN2C(=O)[C@H](CCC(=O)O)NC(=O)[C@@H](NC(=O)[C@H](CCC(N)=O)NC(=O)CN2CCN(C(=O)CN3CCN(CC(=O)O)CCN(CC(=O)O)CCN(CC(=O)O)CC3)CC2)CSCc2cccc(c2)CSC[C@@H](C(N)=O)NC(=O)[C@H](CO)NC(=O)[C@H](Cc2c[nH]c3ccccc23)NC(=O)[C@H]([C@@H](C)O)NC1=O` [^68Ga-DPI-4452, metal not drawn] the tolerability of treatment [2] was “well tolerated”, the “uptake in tumor compared to kidney and liver” value [2] was “Preferential tumor uptake” and the tolerability of treatment [3] was “well tolerated”. For the same compound, the “uptake in tumor compared to kidney and liver” value [3] was “Preferential tumor uptake”.

`CC(C)C[C@@H]1NC(=O)[C@H](Cc2c[nH]c3ccccc23)NC(=O)[C@H](CC(=O)O)NC(=O)[C@H]2CCCN2C(=O)[C@H](CCC(=O)O)NC(=O)[C@@H](NC(=O)[C@H](Cc2ccc(O)cc2)NC(=O)[C@@H](NC(=O)CN2CCC(NC(=O)CCCCC[N+]3=C(/C=C/C=C/C=C4\N(CCCCS(=O)(=O)O)c5ccccc5C4(C)C)C(C)(C)c4ccccc43)CC2)C(C)C)CSCc2cccc(c2)CSC[C@@H](C(N)=O)NC(=O)[C@H](CO)NC(=O)[C@H](Cc2c[nH]c3ccccc23)NC(=O)[C@H]([C@@H](C)O)NC1=O` [3BP-4149, Cy5SO3-APAc-Val-Tyr-[Cys(3MeBn)-Glu-pro-Asp-Trp-Leu-Thr-Trp-Ser-Cys]-NH2] (X69-[X2]VYCE[dP]DWLTWSC-NH2; linker 4-13 via mXylylene) was tested, and the EC50 [1] was less than 10 nM.

In the case of `CC(C)C[C@@H]1NC(=O)[C@H](Cc2cccc(NC(=O)CCCS(N)(=O)=O)c2)NC(=O)[C@H](CC(=O)O)NC(=O)[C@H]2CCCN2C(=O)[C@H](CCC(=O)O)NC(=O)[C@@H](NC(=O)[C@H](CCC(N)=O)NC(=O)CN2CCN(C(=O)CN3CCN(CC(=O)O)CCN(CC(=O)O)CCN(CC(=O)O)CC3)CC2)CSCc2cccc(c2)CSC[C@@H](C(N)=O)NC(=O)[C@H](CO)NC(=O)[C@H](Cc2c[nH]c3ccccc23)NC(=O)[C@H]([C@@H](C)O)NC1=O` [^177Lu-DPI-4452, metal not drawn], the “white blood cells, lymphocytes and neutrophils versus vehicle” value ([2]; 33/100 MBq) is reported as “relative suppression”, the “creatinine and urea levels” value ([2]; plasma, day 14 and study end) is reported as “No differences in creatinine and urea levels between treatment groups” and the tolerability of treatment [2] is reported as “well tolerated”. The “uptake in tumor compared to kidney and liver” value [2] was “Preferential uptake in the tumor compared to kidney and liver”, the “white blood cells, lymphocytes and neutrophils versus vehicle” value ([3]; 33/100 MBq) was “relative suppression” and the tolerability of treatment [3] was “well tolerated”. The “uptake in tumor compared to kidney and liver” value [3] was “Preferential uptake in the tumor compared to kidney and liver”.

For `CSCC[C@H](N)C(=O)N[C@H](C(=O)N[C@@H](Cc1ccc(O)cc1)C(=O)N[C@H]1CSCc2cccc(c2)CSC[C@@H](C(=O)NCCCOCCOCCOCCCNC(=O)CCC(=O)N[C@@H](CCCCNC(=O)CCCC[C@@H]2SC[C@@H]3NC(=O)N[C@@H]32)C(N)=O)NC(=O)[C@H](CO)NC(=O)[C@H](Cc2c[nH]c3ccccc23)NC(=O)CNC(=O)[C@H](CC(C)C)NC(=O)[C@H](Cc2c[nH]c3ccccc23)NC(=O)[C@H](CO)NC(=O)CNC(=O)[C@H](CCC(=O)O)NC1=O)C(C)C` [3BP-2777] (H-MVYCEGSWLGWSC-X47; linker 4-13 via mXylylene), the EC50 [1] was less than 10 nM.

For `CC[C@H](C)[C@@H]1NC(=O)[C@H](CCC(=O)O)NC(=O)[C@@H](NC(=O)[C@H](CCC(N)=O)NC(=O)[C@@H](N)CCSC)CSCc2cccc(c2)CSC[C@@H](C(=O)NCCCOCCOCCOCCCNC(=O)CCC(=O)N[C@@H](CCCCNC(=O)CCCC[C@@H]2SC[C@@H]3NC(=O)N[C@@H]32)C(N)=O)NC(=O)[C@H]([C@@H](C)O)NC(=O)[C@H](C(C)C)NC(=O)[C@H](Cc2c[nH]c3ccccc23)NC(=O)CNC(=O)[C@H](CC(=O)O)NC(=O)[C@H](C(C)C)NC(=O)[C@H](Cc2c[nH]c3ccccc23)NC1=O` [3BP-2775] (H-MQCEIWVDGWVTC-X47; linker 3-13 via mXylylene), the EC50 [1] was 10 to 79.4 nM.

`CC[C@H](C)[C@@H]1NC(=O)[C@H](CCC(=O)O)NC(=O)[C@@H](NC(=O)[C@H](CCCNC(=N)N)NC(=O)[C@@H](N)CCSC)CSCc2cccc(c2)CSC[C@@H](C(=O)NCCCOCCOCCOCCCNC(=O)CCC(=O)N[C@@H](CCCCNC(=O)CCCC[C@@H]2SC[C@@H]3NC(=O)N[C@@H]32)C(N)=O)NC(=O)[C@H](CC(=O)O)NC(=O)[C@H](C(C)C)NC(=O)[C@H](Cc2c[nH]c3ccccc23)NC(=O)CNC(=O)[C@H](CC(=O)O)NC(=O)[C@H](C(C)C)NC(=O)[C@H](Cc2c[nH]c3ccccc23)NC1=O` [3BP-2778] (H-MRCEIWVDGWVDC-X47; linker 3-13 via mXylylene) showed an EC50 [1] of less than 10 nM.
